# Target: T1, GPR124 (Homo sapiens, UniProt Q96PE1)
# T1 construct: endogenous in cells; host or cells: T98g human astrocytoma cells
# T1 sequence (Q96PE1 34-1338): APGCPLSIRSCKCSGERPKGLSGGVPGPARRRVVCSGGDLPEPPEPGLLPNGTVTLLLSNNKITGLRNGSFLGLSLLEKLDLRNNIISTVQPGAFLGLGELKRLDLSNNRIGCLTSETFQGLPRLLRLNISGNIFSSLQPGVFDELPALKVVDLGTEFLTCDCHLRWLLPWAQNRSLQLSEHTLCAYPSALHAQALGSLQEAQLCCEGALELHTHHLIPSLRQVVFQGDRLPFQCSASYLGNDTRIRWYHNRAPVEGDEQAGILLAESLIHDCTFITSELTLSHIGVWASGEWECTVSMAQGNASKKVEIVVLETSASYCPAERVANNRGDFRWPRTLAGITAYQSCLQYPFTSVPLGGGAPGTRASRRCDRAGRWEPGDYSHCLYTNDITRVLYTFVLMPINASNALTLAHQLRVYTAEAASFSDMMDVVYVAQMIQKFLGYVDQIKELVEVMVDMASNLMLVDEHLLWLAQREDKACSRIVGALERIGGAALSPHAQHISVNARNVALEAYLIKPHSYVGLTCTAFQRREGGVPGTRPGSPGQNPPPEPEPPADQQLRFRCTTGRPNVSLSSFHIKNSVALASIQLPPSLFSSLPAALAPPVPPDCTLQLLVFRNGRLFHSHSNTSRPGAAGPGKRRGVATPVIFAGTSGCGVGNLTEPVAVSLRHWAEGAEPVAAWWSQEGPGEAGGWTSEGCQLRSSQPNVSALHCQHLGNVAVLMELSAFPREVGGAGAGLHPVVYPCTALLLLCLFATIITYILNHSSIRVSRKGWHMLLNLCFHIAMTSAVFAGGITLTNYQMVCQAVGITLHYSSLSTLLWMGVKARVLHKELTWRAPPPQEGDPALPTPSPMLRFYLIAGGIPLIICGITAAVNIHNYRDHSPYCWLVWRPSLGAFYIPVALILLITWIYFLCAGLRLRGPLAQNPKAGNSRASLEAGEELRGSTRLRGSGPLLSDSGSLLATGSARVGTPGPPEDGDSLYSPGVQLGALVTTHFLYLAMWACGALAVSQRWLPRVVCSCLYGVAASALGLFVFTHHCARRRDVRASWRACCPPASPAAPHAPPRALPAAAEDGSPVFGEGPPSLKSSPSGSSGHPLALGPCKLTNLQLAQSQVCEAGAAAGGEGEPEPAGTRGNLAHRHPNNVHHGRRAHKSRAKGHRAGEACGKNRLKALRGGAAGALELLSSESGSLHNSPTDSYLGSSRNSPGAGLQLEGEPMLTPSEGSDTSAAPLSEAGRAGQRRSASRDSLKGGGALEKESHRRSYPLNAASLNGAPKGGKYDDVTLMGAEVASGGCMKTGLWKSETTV
# Experiment: siRNA knock-down of GPCR candidates, JWH-451 toxicity in T98g cells
# Format: cell-based
# Details: JWH-451 1 μM, siRNA targeting GPR124, viability after three days
# Description: To determine which of the gene candidate encodes for AAI receptors, an siRNA approach is used to knock down each candidate individually to determine which one prevents the toxic effect of JWH-451 and thus encodes for AAI receptors. The prediction is that knocking down AAI receptors prevents the cell death induced by JWH-451. T98g cells were treated with siRNA targeting each of the 39 GPCR gene candidates individually. The first experiment was designed to knock down each GPCR candidate using a mixture of 3 siRNAs thus maximize genetic targeting efficacy. Thus, cells were incubated with siRNA mixtures and then treated with JWH-451 (1 μM) and cell viability measured after three days. Only one mixture of siRNAs (that targeting GPR124) decreased the toxicity of JWH-451. […] Two of the three siRNAs knocked-down GPR124 expression by more than 80% over 4 days (FIG. 3b). […] The killing effect induced by JWH-451 is mediated by GPR124, a AAI receptor.
structure (smiles),measurement,value
"CCn1c(C)c(C(=O)c2ccc(C)c3ccccc23)c2ccccc21 [JWH-451, 1-Ethyl-2-methyl-3-(4-methyl-1-napthoyl)indole]",JWH-451-induced killing of T98g cells when GPR124 mRNA expression is reduced,reduced

# Reference: patent US9034895B2, “Composition and methods for treating glioblastoma” (University of Washington Through its Center for …, priority 2010, dated 2015)
